Test results as given in paper PMC7156612, “Olinciguat, an Oral sGC Stimulator, Exhibits Diverse Pharmacology Across Preclinical Models of Cardiovascular, Metabolic, Renal, and Inflammatory Disease” (Frontiers in Pharmacology, 2020).
Read-outs that look alike come from different tables or passages of the source.

Columns and labels:
[1] = test system: human subcutaneous resistance arteries; assay: Human vascular smooth muscle relaxation (U46619-precontracted arteries); type: cell-based; details: for EC50: Homo sapiens
Method: The effect of olinciguat on relaxation of contracted human subcutaneous resistance arteries was determined according to methods described in ([Tobin et al., 2018]). In brief, human subcutaneous resistance arteries were obtained from three donors (females ages 27–51) undergoing elective surgeries. Arteries were mounted in a tissue bath and precontracted with the thromboxane mimetic, U46619 (100 nM). Only tissues containing functional endothelium, as determined by relaxation in response to acetylcholine (10 µM), were used. A cumulative concentration-response curve (0.1 to 10 µM) was generated for olinciguat, followed by addition of the NO donor sodium nitroprusside (100 μM). Percent relaxation at each olinciguat concentration was determined relative to the U46619-mediated contraction. Using GraphPad Prism v.7, a sigmoidal dose-response (variable slope) curve was fit with the bottom value constrained to zero to determine the EC50.

[2] = Plasma protein binding (equilibrium dialysis), human; type: in vitro ADME; details: 1 and 10 μM, equilibrium dialysis 18 h, read-out: bound to plasma proteins (converted)
Method: Concentrated (10 mM) DMSO stock solutions of olinciguat were diluted to 1 and 10 μM in 2.5 ml of rat (male and female Sprague Dawley) and human plasma. Concentrated [^14C]-labeled olinciguat (1 μl,1 mCi/ml stock concentration) was spiked into each sample and mixed by vortexing. Triplicate 500 μl aliquots of plasma containing [^14C]-labeled olinciguat were transferred to a Rapid Equilibrium Dialysis system and dialyzed (molecular weight cut-off ~8000 Da) against 500 μl of phosphate-buffered saline (PBS) at room temperature for 18 h. Radioactivity of [^14C]-labeled olinciguat in PBS and plasma samples was measured using liquid scintillation counting.

[3] = Dahl salt-sensitive rat model; type: in vivo; details: male, Dahl salt-sensitive (DSS), rat, plasma, oral; DSS rats, 10 mg/kg/day in chow, week 6, n=6; read-out: average total plasma concentration of olinciguat
Method: (§1) The Dataquest A.R.T.™ acquisition and analysis system (Data Sciences International [DSI], St. Paul, MN) was employed to monitor and analyze hemodynamic data from conscious, freely moving rats surgically implanted with a telemetry pressure transmitter (PA-C40). Telemetry transmitter implantation was performed on rats under sterile conditions. Rats were anesthetized with isoflurane and body temperature was maintained with a heating pad during surgery. A laparotomy was performed to expose the abdominal aorta. The catheter tip of the telemetry transmitter was inserted into the abdominal aorta and secured with a 5-0 silk suture (Ethicon, Inc., Somerville, NJ). The abdominal incision was closed with uninterrupted suture (4-0 silk, Ethicon, Inc., Somerville, NJ) and the telemetry transmitter was placed in the abdominal cavity and secured to the abdominal wall. Approximately 100 µl of 0.25% marcaine was applied directly to the closed abdominal wall, and the skin was then closed with suture (4-0 Vicryl® absorbable, Ethicon, Inc., Somerville, NJ). Buprenorphine (0.05 mg/kg/day, subcutaneous [s.c.]) was administered immediately after the surgery for postoperative pain relief. After recovery from anesthesia, rats were returned to their home cages, placed on DSI receivers, and allowed a 5- to 14-day recovery period. Arterial hemodynamics were measured continuously and recorded throughout the study. For acute studies, analysis was based on hourly averages, for chronic studies, analysis was based on daily or weekly averages.
(§2) Male DSS rats (n = 48, 230–300 g) were implanted with telemetry transmitters as described above. During the 2-week pretreatment period and the 6-week treatment period, rats were either fed a NS diet (0.3% NaCl, n=8) or a HS diet (8% NaCl). During the treatment period, one group of HS rats was continued on HS diet (HS, n=8) and a second group of HS rats was switched to a HS diet containing olinciguat targeting the dose equivalent of 10 mg/kg/day (OLI10, n=8). At the end of the 6-week treatment period, body weight was measured, urine was collected over a 24-h period using a metabolic cage for urinalysis, and blood samples were collected for plasma biomarker analyses. At the end of the study, rats were anesthetized, and whole bodies were perfused via the left ventricle with heparinized PBS (1 U/ml heparin) containing IBMX (1mM). Organs were collected and weighed. All organ weights were normalized to body weight. After weighing the heart, the right ventricular free wall was removed, and the left ventricular free wall plus left ventricular septum (LV+S) were weighed.
(§3) In the DSS model, daily MAP (24-h average) data were analyzed using two-way ANOVA, with time and treatment group as independent variables. For each day, groups were compared to the HS group with a Dunnett's post-hoc test. Body weight, LV+S, cardiac weight, lung weight, kidney weight, plasma NT-proBNP, and 24-h urine protein excretion (UPE) data were analyzed by one-way ANOVA, followed by Dunnett's multiple comparison to the HS group.

[4] = test system: Dahl salt-sensitive (DSS) rats on high salt diet; assay: Dahl salt-sensitive rat model; type: in vivo; details: for MAP at the end of the treatment period: 6 weeks; for LV+S weight normalized to body weight: end of 6-week treatment
Method: as §1, §2, §3

[5] = Mouse TNFα-induced model of vascular inflammation; type: in vivo; details: male, C57BL/6, mouse, plasma, po; mice, 10 mg/kg p.o., at euthanasia; read-out: plasma concentration of olinciguat
Method: (§4) Male C57BL/6 mice (n=30, 22 g, 8 weeks) were studied. The TNFα/olinciguat group of mice (n=10) was administered 10 mg/kg olinciguat p.o., formulated in 0.1 ml 100% PEG, followed byintraperitoneal (i.p.) injection of 50 ng of mouse TNFα formulated in 0.5 ml pyrogen-free 0.9% NaCl solution one hour later. The TNFα/vehicle control group of mice (n=10) was treated with p.o. vehicle, followed by i.p. injection of 50 ng of mouse TNFα after one h. A naïve, non-treated control group of mice (n=10) was included in the study. […] Plasma levels of olinciguat were determined by LCMS. Plasma samples were diluted 1:300 for determination of sL-selectin, sP-selectin, sE-selectin, and sICAM-1 by ELISA.
(§5) In the vascular inflammation model, data were analyzed by one-way ANOVA, followed by Dunnett's multiple comparison to the TNFα-vehicle control.

[6] = test system: C57BL/6 mice treated with TNFα; assay: Mouse TNFα-induced model of vascular inflammation; type: in vivo; details: 10 mg/kg, total plasma concentration x 1.7% free
Method: as §4, §5

## NC(=O)[C@](O)(CNc1nc(-c2cc(-c3ccon3)n(Cc3ccccc3F)n2)ncc1F)C(F)(F)F [olinciguat, (R)-3,3,3-trifluoro-2-(((5-fluoro-2-(1-(2-fluorobenzyl)-5-(isoxazol-3-yl)-1H-pyrazol-3-yl)pyrimidin-4-yl)amino)methyl)-2-hydroxypropanamide]
[1]; 10 μM olinciguat, relative to U46619-mediated contraction
  mean relaxation at 10 μM: 94.8%
[1]; Table 2 summary, read-out: Human vascular relaxation EC50, olinciguat concentration (range = 95% CI)
  EC50: 0.016 to 0.038 µM
[1]; pre-contracted with U46619 100 nM, n=3 donors, 95% CI 16 to 38 nM, read-out: EC50, relaxation of pre-contracted arteries
  EC50: 0.0243 µM
[2]
  fraction unbound at 18 h: 0.0199
[3]
  concentration at 6 weeks: 25.4 ± 3.8 nM
[4]; 10 mg/kg/day, total plasma concentration x 1.0% free
  Olinciguat concentration (free): 0.22–0.29 nM^e
[4]; HS diet, olinciguat 10 mg/kg/day in chow
  MAP at the end of the treatment period: 192 mmHg
[4]; HS diet, olinciguat 10 mg/kg/day in chow, listed as OLI10
  MAP at the end of the treatment period: 192 ± 7 mmHg
[4]; HS diet, olinciguat 10 mg/kg/day in chow, 161 ± 7 mmHg on day 14 before treatment
  MAP on day 16 (after treatment initiation): 146 ± 7 mmHg
[4]; HS diet, olinciguat 10 mg/kg/day vs NS control
  lung weight, fold higher than in NS: 1.2 fold
[4]; HS diet, olinciguat 10 mg/kg/day, HS 8.9 ± 1.7
  lung weight normalized to body weight: ↓ lung weight
[4]; HS diet, olinciguat 10 mg/kg/day, HS 8.9 ± 1.7, listed as OLI10
  lung weight normalized to body weight: 4.0 ± 0.1 g/kg BW
[4]; HS diet, olinciguat 10 mg/kg/day, HS 10.9 ± 0.5, not significantly different
  normalized kidney weight: 10.2 ± 0.23 g/kg BW
[4]; HS diet, olinciguat 10 mg/kg/day, HS 643 ± 60, not statistically significant
  24-h urine protein excretion (UPE): 599 ± 70 mg
[4]; HS diet, olinciguat 10 mg/kg/day, HS control 364 ± 19
  average body weight at the end of the treatment period: 412 ± 11 g
[4]; HS diet, olinciguat 10 mg/kg/day, data not shown
  cardiac weight vs HS: lower in OLI10 than HS
[4]; HS diet, olinciguat 10 mg/kg/day, HS 4.1 ± 0.2
  LV+S weight normalized to body weight: ↓ cardiac hypertrophy
[4]; HS diet, olinciguat 10 mg/kg/day, HS 4.1 ± 0.2, listed as OLI10
  LV+S weight normalized to body weight: 3.3 ± 0.1 g/kg BW
[4]; HS diet, olinciguat 10 mg/kg/day, lower than HS, listed as OLI10
  difference in MAP between olinciguat-treated and HS disease control at end of treatment period: 15 mmHg
[4]; HS diet, olinciguat 10 mg/kg/day, n=6, HS 2,833 ± 416
  plasma NT-proBNP: ↓ NT-proBNP
[4]; HS diet, olinciguat 10 mg/kg/day, n=6, HS 2,833 ± 416, listed as OLI10
  plasma NT-proBNP: 1,235 ± 301 pg/ml
[4]; olinciguat 10 mg/kg/day
  NT-proBNP, percent lower than untreated controls: 56%
[5]
  concentration at 5 h: 544 ± 61 nM
[6]
  Olinciguat concentration (free): 8.2–10.2 nM^f
